Measured values published in ChEMBL document CHEMBL4811295, “The ester derivatives obtained by C-ring modification of podophyllotoxin induce apoptosis and inhibited proliferation in PC-3M cells via down-regulation of PI3K/Akt signaling pathway” (Bioorg Med Chem Lett, 2021).
Active and inactive are the calls of the source. No cut-off for these calls is given here.

What was measured:
PC-3M [1] = assay: Induction of apoptosis in human PC-3M cells assessed as increase of cleaved caspase-3 expression at 1 to 10 nM measured by western blot assay; format: functional, cell-based; conditions: dose 1-10 nM
A549 = assay: Cytotoxicity in human A549 cells assessed as inhibition of cell proliferation measured by CCK-8 assay; format: functional, cell-based
PC-3M [2] = assay: Antiproliferative activity against human PC-3M cells assessed as inhibition of cell proliferation measured after 9 days by Crystal violet staining based colony formation assay; format: functional; conditions: dose 5-10 nM, time 9.0 day
PC-3M [3] = assay: Induction of apoptosis in human PC-3M cells assessed as increase of Bax expression at 1 to 10 nM measured by western blot assay; format: functional, cell-based; conditions: dose 1-10 nM
PC-3M [4] = assay: Induction of apoptosis in human PC-3M cells assessed as necrotic cells at 5 nM measured after 48 hrs by Annexin V/PI staining based flow cytometry method (reference value: 0.25%); format: functional
PC-3M [5] = assay: Anti-migration activity in human PC-3M cells measured after 24 hrs by microscopy based wound scratch method; format: functional, cell-based; conditions: dose 1-10 nM
PC-3M [6] = assay: Induction of apoptosis in human PC-3M cells assessed as early apoptotic cells at 10 nM measured after 48 hrs by Annexin V/PI staining based flow cytometry method (reference value: 1.25%); format: functional
PC-3M [7] = assay: Induction of apoptosis in human PC-3M cells assessed as necrotic cells at 10 nM measured after 48 hrs by Annexin V/PI staining based flow cytometry method (reference value: 0.25%); format: functional
PC-3M [8] = assay: Induction of apoptosis in human PC-3M cells assessed as necrotic cells at 1 nM measured after 48 hrs by Annexin V/PI staining based flow cytometry method (reference value: 0.25%); format: functional
PC-3M [9] = assay: Induction of apoptosis in human PC-3M cells assessed as late apoptotic cells at 1 nM measured after 48 hrs by Annexin V/PI staining based flow cytometry method (reference value: 2.88%); format: functional
HMEC = assay: Cytotoxicity in human HMEC cells assessed as inhibition of cell proliferation measured by CCK-8 assay; format: functional, cell-based
PC-3M [10] = assay: Induction of apoptosis in human PC-3M cells assessed as early apoptotic cells at 1 nM measured after 48 hrs by Annexin V/PI staining based flow cytometry method (reference value: 1.25%); format: functional
PC-3M [11] = assay: Induction of apoptosis in human PC-3M cells assessed as viable cells at 10 nM measured after 48 hrs by Annexin V/PI staining based flow cytometry method (reference value: 95.6%); format: functional; conditions: read-out: Activity
PC-3M [12] = assay: Induction of apoptosis in human PC-3M cells assessed by apoptotic changes in cells at 1 uM measured after 48 hrs by DAPI staining based microscopic method relative to PPT; format: functional, cell-based
PC-3M [13] = assay: Inhibition of PI3K in human PC-3M cells assessed as reduction of phosphorylated PI3K expression at 1 to 10 nM measured by western blot assay; format: cell-based; conditions: dose 1-10 nM
PC-3M [14] = assay: Induction of apoptosis in human PC-3M cells assessed by formation of chromatin fragments at 10 nM measured after 48 hrs by DAPI staining based microscopic method; format: functional, cell-based
PC-3M [15] = assay: Induction of apoptosis in human PC-3M cells assessed as viable cells at 1 nM measured after 48 hrs by Annexin V/PI staining based flow cytometry method (reference value: 95.6%); format: functional; conditions: read-out: Activity
PC-3M [16] = assay: Induction of apoptosis in human PC-3M cells assessed as late apoptotic cells at 10 nM measured after 48 hrs by Annexin V/PI staining based flow cytometry method (reference value: 2.88%); format: functional
PC-3M [17] = assay: Cytotoxicity in human PC-3M cells assessed as inhibition of cell proliferation measured by CCK-8 assay; format: functional, cell-based
PC-3M [18] = assay: Induction of apoptosis in human PC-3M cells assessed by irregular nucleus at 10 nM measured after 48 hrs by DAPI staining based microscopic method; format: functional, cell-based
[19] = target: RAC-alpha serine/threonine-protein kinase (Homo sapiens) (UniProt P31749); assay: Inhibition of Akt in human PC-3M cells assessed as reduction of […] expression at 1 to 10 nM measured by western blot assay; format: cell-based; conditions: dose 1-10 nM
PC-3M [20] = assay: Induction of apoptosis in human PC-3M cells assessed as viable cells at 5 nM measured after 48 hrs by Annexin V/PI staining based flow cytometry method (reference value: 95.6%); format: functional; conditions: read-out: Activity
PC-3M [21] = assay: Induction of apoptosis in human PC-3M cells assessed as early apoptotic cells at 5 nM measured after 48 hrs by Annexin V/PI staining based flow cytometry method (reference value: 1.25%); format: functional
PC-3M [22] = assay: Induction of apoptosis in human PC-3M cells assessed as decrease of Bcl-2 expression at 1 to 10 nM measured by western blot assay; format: functional, cell-based; conditions: dose 1-10 nM
HepG2 = assay: Cytotoxicity in human HepG2 cells assessed as inhibition of cell proliferation measured by CCK-8 assay; format: functional, cell-based
MCF7 = assay: Cytotoxicity in human MCF7 cells assessed as inhibition of cell proliferation measured by CCK-8 assay; format: functional, cell-based
PC-3M [23] = assay: Induction of apoptosis in human PC-3M cells assessed by formation of apoptotic bodies at 10 nM measured after 48 hrs by DAPI staining based microscopic method; format: functional, cell-based
PC-3M [24] = assay: Induction of apoptosis in human PC-3M cells assessed by broken nucleus at 10 nM measured after 48 hrs by DAPI staining based microscopic method; format: functional, cell-based
PC-3M [25] = assay: Induction of apoptosis in human PC-3M cells assessed as late apoptotic cells at 5 nM measured after 48 hrs by Annexin V/PI staining based flow cytometry method (reference value: 2.88%); format: functional

Chain of RAC-alpha serine/threonine-protein kinase (Homo sapiens) (P31749 whole entry): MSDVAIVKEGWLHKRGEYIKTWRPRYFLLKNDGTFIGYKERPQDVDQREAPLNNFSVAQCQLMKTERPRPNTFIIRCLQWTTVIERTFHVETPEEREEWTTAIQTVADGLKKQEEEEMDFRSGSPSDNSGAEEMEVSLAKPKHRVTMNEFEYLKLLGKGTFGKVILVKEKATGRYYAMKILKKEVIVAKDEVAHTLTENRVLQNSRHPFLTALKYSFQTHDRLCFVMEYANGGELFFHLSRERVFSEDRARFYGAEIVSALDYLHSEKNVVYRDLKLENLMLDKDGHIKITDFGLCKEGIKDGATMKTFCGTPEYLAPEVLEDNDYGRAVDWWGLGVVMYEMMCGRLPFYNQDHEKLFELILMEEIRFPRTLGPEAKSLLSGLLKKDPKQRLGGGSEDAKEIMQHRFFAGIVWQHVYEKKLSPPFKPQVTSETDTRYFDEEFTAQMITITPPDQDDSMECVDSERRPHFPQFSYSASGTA

## COc1cc([C@@H]2c3cc4c(cc3[C@H](OC(=O)CNC(=O)OC(C)(C)C)[C@H]3COC(=O)[C@H]23)OCO4)cc(OC)c1OC
PC-3M [1]
  Activity: Dose-Dependent Effect
A549
  IC50: 0.00954 µM
PC-3M [2]
  Activity: Dose-Dependent Effect
PC-3M [3]
  Activity: Dose-Dependent Effect
PC-3M [4]
  Activity: 0.11%
PC-3M [5]
  Activity: Dose-Dependent Effect
PC-3M [6]
  Activity: 5.41%
PC-3M [7]
  Activity: 0.21%
PC-3M [8]
  Activity: 0.14%
PC-3M [9]
  Activity: 5.53%
HMEC
  IC50: 0.768 µM
PC-3M [10]
  Activity: 1.86%
PC-3M [11]
  viability at 0.01 µM: 64.4%
PC-3M [12]
  Activity: Active
PC-3M [13]
  inhibition: Active
PC-3M [14]
  Activity: Dose-Dependent Effect
PC-3M [15]
  viability at 0.001 µM: 92.5%
PC-3M [16]
  Activity: 29.9%
PC-3M [17]
  IC50: 0.00128 µM
PC-3M [18]
  Activity: Dose-Dependent Effect
[19]
  inhibition: Active
PC-3M [20]
  viability at 0.005 µM: 83.4%
PC-3M [21]
  Activity: 3.74%
PC-3M [22]
  Activity: Dose-Dependent Effect
HepG2
  IC50: 50.7 µM
MCF7
  IC50: 144 µM
PC-3M [23]
  Activity: Dose-Dependent Effect
PC-3M [24]
  Activity: Dose-Dependent Effect
PC-3M [25]
  Activity: 12.7%
